Results taken from paper PMC12892976, “Alkylation-based optimization of antifungal FPPS inhibitors yields a potent, broad-spectrum lipophilic zoledronate derivative” (mBio, 2025).

How the values were obtained:
Candida dubliniensis = assay: checkerboard drug interaction (FICI, MICc); type: cell-based;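 also: simplified diagonal checkerboard screen pairing antifungals with FPPS inhibitors, FICI calculated under the Loewe additivity model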
Method: (§2) Drug interactions between antifungals and FPPS inhibitors were investigated using a simplified checkerboard diagonal screening method ([45]). […] FICIs were determined according to the Loewe additivity model ([17]).

[1] = test system: Cryptococcus neoformans biofilms; assay: biofilm XTT reduction assay (SIC80, SFICI); settings: for SICc / SFICI: Cryptococcus neoformans
Method: (§3) Biofilms of Cryptococcus were seeded in DMEM, and all other species were seeded in RPMI-1640.

Klebsiella pneumoniae = assay: antibacterial MIC; type: cell-based
Excerpt: […]; Table S3). […]. […] […].

[2] = test system: Trichophyton interdigitale; assay: MIC broth microdilution (CLSI); type: cell-based; settings: Trichophyton interdigitale R-234
Method: (§4) Antifungal susceptibility was determined by broth microdilution according to the CLSI guidelines described in M27-Ed4 ([16]).

[3] = test system: Cryptococcus bacillisporus; assay: checkerboard drug interaction (FICI, MICc); type: cell-based;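 also: interaction of antifungals with FPPS inhibitors assessed by a simplified diagonal checkerboard screen, with FICI computed under the Loewe additivity model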
Method: as §2

[4] = test system: Aspergillus fumigatus biofilms; assay: biofilm XTT reduction assay (SIC80, SFICI); type: cell-based; settings: for SICc / SFICI: Aspergillus fumigatus
Excerpt: (§1) […]. […] […].

[5] = test system: Aspergillus flavus biofilms; assay: biofilm XTT reduction assay (SIC80, SFICI); type: cell-based; settings: for SICc / SFICI: Aspergillus flavus
Excerpt: as §1

[6] = test system: Candida glabrata biofilms; assay: biofilm XTT reduction assay (SIC80, SFICI); type: cell-based; settings: for SICc / SFICI: Candida glabrata
Excerpt: as §1

[7] = test system: 38 species of clinically relevant fungi; assay: MIC summary across 38 species of clinically relevant fungi; type: cell-based; settings: 38 fungal species
Excerpt: […]; Table S3). […]. […] […]. […] […].

Paraphyton cookei = assay: checkerboard drug interaction (FICI, MICc);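 also: simplified diagonal checkerboard screen pairing an antifungal with an FPPS inhibitor, FICI computed under the Loewe additivity model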
Method: as §2

Candida tropicalis = assay: checkerboard drug interaction (FICI, MICc); type: cell-based;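 also: simplified diagonal checkerboard screen of antifungal plus FPPS inhibitor combinations, with FICI computed by the Loewe additivity model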
Method: as §2

[8] = test system: Saccharomyces cerevisiae biofilms; assay: biofilm XTT reduction assay (SIC80, SFICI); type: cell-based; settings: for SICc / SFICI: Saccharomyces cerevisiae
Method: as §3

Cryptococcus tetragattii = assay: MIC broth microdilution (CLSI); type: cell-based; settings: Cryptococcus tetragattii WM779
Method: as §4

Aspergillus lentulus = assay: MIC broth microdilution (CLSI); type: cell-based; settings: Aspergillus lentulus DTO 341-G7
Method: as §4

Aspergillus udagawae = assay: checkerboard drug interaction (FICI, MICc); type: cell-based;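 also: simplified diagonal checkerboard screen pairing antifungals with FPPS inhibitors, FICI calculated using the Loewe additivity model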
Method: as §2

[9] = test system: Cryptococcus deneoformans; assay: MIC broth microdilution (CLSI); type: cell-based; settings: Cryptococcus deneoformans JEC21
Method: as §4

Fusarium oxysporum = assay: MIC broth microdilution (CLSI); type: cell-based; settings: Fusarium oxysporum 07-200-3012
Method: as §4

Pichia kudriavzevii = assay: MIC broth microdilution (CLSI); type: cell-based; settings: Pichia kudriavzavii ATCC 6258
Method: Antifungal susceptibility was determined by broth microdilution according to the CLSI guidelines described in M27-Ed4 ([16]). […] MFC was determined by back-plating drug-treated cultures from MIC broths onto SDA plates. The MFC was defined as the lowest concentration from which no colonies could be cultured.

CCCCCCCCCCn1cc[n+](CC(O)(P(=O)(O)O)P(=O)(O)O)c1 [10-ZOL, Decyl-zoledronate]
64 µg/mL: SICc ([4]; FLC:10-ZOL combination) | SICc ([5]; ITR:10-ZOL combination) | SIC80 ([8]; agent alone, Saccharomyces cerevisiae S288c)
32 µg/mL: SICc ([1]; FLC:10-ZOL combination) | SICc ([4]; ITR:10-ZOL combination) | SICc ([5]; KET:10-ZOL combination) | SICc ([8]; FLC:10-ZOL combination) | SICc ([8]; ITR:10-ZOL combination)
1 µg/mL: MIC / MEC [2] | MIC / MEC [9]
0.56: SFICI ([1]; KET:10-ZOL)
1.02: FICI (Aspergillus udagawae; FLC:10-ZOL)
128 µg/mL: SIC80 ([1]; agent alone, Cryptococcus neoformans H99) | SIC80 ([4]; agent alone, Aspergillus fumigatus ATCC 204305) | SIC80 ([5]; agent alone, Aspergillus flavus ATCC 204304)
0.50: SFICI ([6]; KET:10-ZOL)
0.5 to 8 µg/mL: overall MIC range [7]
0.63: SFICI ([1]; ITR:10-ZOL) | SFICI ([4]; FLC:10-ZOL) | SFICI ([5]; FLC:10-ZOL) | SFICI ([6]; FLC:10-ZOL) | SFICI ([8]; KET:10-ZOL)
1.00: SFICI ([5]; ITR:10-ZOL) | SFICI ([6]; ITR:10-ZOL) | SFICI ([8]; ITR:10-ZOL)
1.03: FICI (Aspergillus udagawae; VOR:10-ZOL)
0.61: FICI ([3]; ITR:10-ZOL)
0.25: bisphosphonate MICc (Paraphyton cookei; with 5FC) | bisphosphonate MICc (Paraphyton cookei; with AMB) | bisphosphonate MICc (Paraphyton cookei; with CAS) | bisphosphonate MICc (Paraphyton cookei; with FLC) | bisphosphonate MICc (Paraphyton cookei; with ITR) | bisphosphonate MICc (Paraphyton cookei; with KET) | bisphosphonate MICc (Candida tropicalis; with KET) | bisphosphonate MICc (Aspergillus udagawae; with ITR)
8 µg/mL: SICc ([1]; KET:10-ZOL combination) | SIC80 ([6]; agent alone, Candida glabrata CBS138) | SICc ([8]; KET:10-ZOL combination) | MIC / MEC (Fusarium oxysporum)
0.5: FICI (Candida tropicalis; VOR:10-ZOL) | bisphosphonate MICc (Candida tropicalis; with VOR) | FICI (Aspergillus udagawae; ITR:10-ZOL) | bisphosphonate MICc (Aspergillus udagawae; with 5FC) | bisphosphonate MICc (Aspergillus udagawae; with AMB) | bisphosphonate MICc (Aspergillus udagawae; with CAS) | bisphosphonate MICc (Aspergillus udagawae; with KET)
0.53: FICI (Paraphyton cookei; FLC:10-ZOL) | FICI (Paraphyton cookei; ITR:10-ZOL)
0.5 µg/mL: MIC / MEC (Cryptococcus tetragattii)
0.9: FICI (Paraphyton cookei; VOR:10-ZOL)
0.38: SFICI ([4]; KET:10-ZOL)
1: bisphosphonate MICc (Candida dubliniensis; with VOR) | bisphosphonate MICc ([3]; with 5FC) | bisphosphonate MICc ([3]; with CAS) | bisphosphonate MICc (Candida tropicalis; with 5FC) | bisphosphonate MICc (Candida tropicalis; with CAS) | bisphosphonate MICc (Candida tropicalis; with FLC) | FICI (Aspergillus udagawae; 5FC:10-ZOL) | FICI (Aspergillus udagawae; CAS:10-ZOL) | bisphosphonate MICc (Aspergillus udagawae; with FLC) | bisphosphonate MICc (Aspergillus udagawae; with VOR)
0.75: SFICI ([1]; FLC:10-ZOL) | SFICI ([4]; ITR:10-ZOL) | SFICI ([5]; KET:10-ZOL) | SFICI ([8]; FLC:10-ZOL)
≥4: FICI (Paraphyton cookei; 5FC:10-ZOL) | FICI (Candida tropicalis; CAS:10-ZOL)
2 µg/mL: SICc ([6]; KET:10-ZOL combination) | MIC / MEC (Aspergillus lentulus)
1.39 ± 1.6 µg/mL: MIC ([7]; read-out: GM MIC)
0.125: bisphosphonate MICc (Candida dubliniensis; with ITR) | bisphosphonate MICc (Candida dubliniensis; with KET) | bisphosphonate MICc ([3]; with AMB) | bisphosphonate MICc ([3]; with FLC) | bisphosphonate MICc ([3]; with ITR) | bisphosphonate MICc ([3]; with KET) | bisphosphonate MICc ([3]; with VOR) | bisphosphonate MICc (Paraphyton cookei; with VOR) | bisphosphonate MICc (Candida tropicalis; with AMB) | bisphosphonate MICc (Candida tropicalis; with ITR)
1.5: FICI (Paraphyton cookei; AMB:10-ZOL) | FICI (Paraphyton cookei; CAS:10-ZOL) | FICI (Candida tropicalis; 5FC:10-ZOL)
4 µg/mL: SICc ([6]; FLC:10-ZOL combination) | SICc ([6]; ITR:10-ZOL combination) | MIC / MEC (Pichia kudriavzevii)
16 µg/mL: SICc ([1]; ITR:10-ZOL combination) | MIC (Klebsiella pneumoniae) | SICc ([4]; KET:10-ZOL combination) | SICc ([5]; FLC:10-ZOL combination)
